From ChEMBL document CHEMBL1201862, “PubChem BioAssay data set” (2004)
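1) Cells in 96-well plates. 2) Compound, 48 h, 5 concentrations. 3) Linear interpolation between surrounding doses. 4) Unreached endpoint = highest concentration. Here, GI50 denotes the concentration required for 50% inhibition of growth.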 Calls of active or inactive are those of the source. Rule as the data show it: active = GI50 up to about 1.1 µM and inactive = higher.

How the values were obtained:
Assay in all cases: NCI tumour cell line growth inhibition, 48 h
HL-60 = test system: HL-60
MOLT-4 = test system: MOLT-4
UACC-257 = test system: UACC-257
K562 = test system: K562
DU-145 = test system: DU-145
SN12C = test system: SN12C
SK-MEL-2 = test system: SK-MEL-2
T47D = test system: T47D
NCI-H226 = test system: NCI-H226
SR = test system: SR
SW-620 = test system: SW-620
M14 = test system: M14
RPMI-8226 = test system: RPMI-8226
PC-3 = test system: PC-3
UACC-62 = test system: UACC-62
BT-549 = test system: BT-549
SK-OV-3 = test system: SK-OV-3
SK-MEL-5 = test system: SK-MEL-5
OVCAR-5 = test system: OVCAR-5
MDA-MB-231 = test system: MDA-MB-231
COLO 205 = test system: COLO 205
NCI/ADR-RES = test system: NCI/ADR-RES
MDA-N = test system: MDA-N
KM12 = test system: KM12
U-251 = test system: U-251
NCI-H23 = test system: NCI-H23
HCT-116 = test system: HCT-116
UO-31 = test system: UO-31
NCI-H460 = test system: NCI-H460
Hs-578T = test system: Hs-578T
OVCAR-3 = test system: OVCAR-3
CAKI-1 = test system: CAKI-1
SNB-19 = test system: SNB-19
OVCAR-4 = test system: OVCAR-4
SF-268 = test system: SF-268
HCC 2998 = test system: HCC 2998
HCT-15 = test system: HCT-15
NCI-H522 = test system: NCI-H522
ACHN = test system: ACHN
HOP-62 = test system: HOP-62
MDA-MB-435 = test system: MDA-MB-435
A549 = test system: A549
RXF 393 = test system: RXF 393
SNB-75 = test system: SNB-75
CCRF-CEM = test system: CCRF-CEM
TK-10 = test system: TK-10
SF-295 = test system: SF-295
OVCAR-8 = test system: OVCAR-8
EKVX = test system: EKVX
HOP-92 = test system: HOP-92
786-0 = test system: 786-0
LOX IMVI = test system: LOX IMVI
MCF7 = test system: MCF7
IGROV-1 = test system: IGROV-1
Malme-3M = test system: Malme-3M
SF-539 = test system: SF-539
A498 = test system: A498
HT-29 = test system: HT-29
KM-20L2 = test system: KM-20L2
DLD-1 = test system: DLD-1
DMS-273 = test system: DMS-273
M19-MEL = test system: M19-MEL
SNB-78 = test system: SNB-78
SK-MEL-28 = test system: SK-MEL-28
LXFL 529 = test system: LXFL 529

With `Nc1ccn(C2CCC(CO)O2)c(=S)n1` (stereo not drawn) the GI50 (HL-60) was > 100 µM (inactive), the GI50 (MOLT-4) was > 100 µM (inactive) and the GI50 (UACC-257) was > 100 µM (inactive). The GI50 (K562) was > 100 µM (inactive), the GI50 (DU-145) was > 100 µM (inactive) and the GI50 (SN12C) was > 100 µM (inactive). For the same compound, the GI50 (SK-MEL-2) was > 100 µM (inactive), the GI50 (T47D) was > 100 µM (inactive) and the GI50 (NCI-H226) was > 100 µM (inactive). For the same compound, the GI50 (SR) was > 100 µM (inactive), the GI50 (SW-620) was > 100 µM (inactive) and the GI50 (M14) was > 100 µM (inactive). For the same compound, the GI50 (RPMI-8226) was 35.8 µM (inactive), the GI50 (PC-3) was > 100 µM (inactive) and the GI50 (UACC-62) was > 100 µM (inactive). The GI50 (BT-549) was > 100 µM (inactive), the GI50 (SK-OV-3) was > 100 µM (inactive) and the GI50 (SK-MEL-5) was > 100 µM (inactive). The GI50 (OVCAR-5) was > 100 µM (inactive), the GI50 (MDA-MB-231) was > 100 µM (inactive) and the GI50 (COLO 205) was > 100 µM (inactive). The GI50 (NCI/ADR-RES) was > 100 µM (inactive), the GI50 (MDA-N) was > 100 µM (inactive) and the GI50 (KM12) was > 100 µM (inactive). The GI50 (U-251) was > 100 µM (inactive), the GI50 (NCI-H23) was > 100 µM (inactive) and the GI50 (HCT-116) was > 100 µM (inactive). For the same compound, the GI50 (UO-31) was > 100 µM (inactive), the GI50 (NCI-H460) was > 100 µM (inactive) and the GI50 (Hs-578T) was > 100 µM (inactive). For the same compound, the GI50 (OVCAR-3) was > 100 µM (inactive), the GI50 (CAKI-1) was > 100 µM (inactive) and the GI50 (SNB-19) was > 100 µM (inactive). The GI50 (OVCAR-4) was > 10 µM (inactive), the GI50 (SF-268) was > 100 µM (inactive) and the GI50 (HCC 2998) was > 100 µM (inactive). For the same compound, the GI50 (HCT-15) was over 100 µM, the GI50 (NCI-H522) was > 100 µM (inactive) and the GI50 (ACHN) was > 100 µM (inactive). For the same compound, the GI50 (HOP-62) was > 100 µM (inactive), the GI50 (MDA-MB-435) was > 100 µM (inactive) and the GI50 (A549) was > 100 µM (inactive). The GI50 (RXF 393) was > 100 µM (inactive), the GI50 (SNB-75) was 89.5 µM (inactive) and the GI50 (CCRF-CEM) was > 100 µM (inactive). The GI50 (TK-10) was > 100 µM (inactive), the GI50 (SF-295) was > 100 µM (inactive) and the GI50 (OVCAR-8) was > 100 µM (inactive). The GI50 (EKVX) was > 100 µM (inactive), the GI50 (HOP-92) was > 100 µM (inactive) and the GI50 (786-0) was > 100 µM (inactive). For the same compound, the GI50 (LOX IMVI) was > 100 µM (inactive), the GI50 (MCF7) was > 100 µM (inactive) and the GI50 (IGROV-1) was > 100 µM (inactive). The GI50 (Malme-3M) was > 100 µM (inactive), the GI50 (SF-539) was > 100 µM (inactive) and the GI50 (A498) was > 100 µM (inactive). For the same compound, the GI50 (HT-29) was > 100 µM (inactive).
With `CN(Cc1ccccc1)/C(=N\C#N)N(Cc1ccccc1)Cc1ccccc1` the GI50 (HL-60) was 30.1 µM (inactive), the GI50 (MOLT-4) was 10.5 µM (inactive) and the GI50 (UACC-257) was 21.6 µM (inactive). The GI50 (K562) was 25.2 µM (inactive), the GI50 (KM-20L2) was 19.6 µM (inactive) and the GI50 (DU-145) was 39.9 µM (inactive). For the same compound, the GI50 (SN12C) was 34.7 µM (inactive), the GI50 (SK-MEL-2) was 20.3 µM (inactive) and the GI50 (T47D) was 27.7 µM (inactive). The GI50 (NCI-H226) was 28.8 µM (inactive), the GI50 (SR) was 0.0383 µM (active) and the GI50 (DLD-1) was 21 µM (inactive). For the same compound, the GI50 (SW-620) was 40.4 µM (inactive), the GI50 (DMS-273) was 20.9 µM (inactive) and the GI50 (M14) was 20.3 µM (inactive). The GI50 (RPMI-8226) was 21 µM (inactive), the GI50 (PC-3) was 14.8 µM (inactive) and the GI50 (UACC-62) was 20.4 µM (inactive). For the same compound, the GI50 (BT-549) was 19.3 µM (inactive), the GI50 (SK-OV-3) was 29 µM (inactive) and the GI50 (SK-MEL-5) was 18.4 µM (inactive). The GI50 (OVCAR-5) was 21.1 µM (inactive), the GI50 (MDA-MB-231) was 20.6 µM (inactive) and the GI50 (COLO 205) was 19 µM (inactive). The GI50 (NCI/ADR-RES) was 19.8 µM (inactive), the GI50 (MDA-N) was 17.9 µM (inactive) and the GI50 (M19-MEL) was 22.8 µM (inactive). The GI50 (KM12) was 18.7 µM (inactive), the GI50 (U-251) was 28.2 µM (inactive) and the GI50 (NCI-H23) was 21.9 µM (inactive). For the same compound, the GI50 (HCT-116) was 18.7 µM (inactive), the GI50 (UO-31) was 26.5 µM (inactive) and the GI50 (NCI-H460) was 27.6 µM (inactive). The GI50 (Hs-578T) was 34.8 µM (inactive), the GI50 (OVCAR-3) was 18 µM (inactive) and the GI50 (CAKI-1) was 20.1 µM (inactive). For the same compound, the GI50 (SNB-19) was 40.2 µM (inactive), the GI50 (OVCAR-4) was 24.4 µM (inactive) and the GI50 (SF-268) was 34.4 µM (inactive). The GI50 (HCC 2998) was 34.8 µM (inactive), the GI50 (HCT-15) was 26.6 µM and the GI50 (NCI-H522) was 18.1 µM (inactive). The GI50 (SNB-78) was 26.3 µM (inactive), the GI50 (SK-MEL-28) was 27.3 µM (inactive) and the GI50 (ACHN) was 24.3 µM (inactive). The GI50 (HOP-62) was 27.7 µM (inactive), the GI50 (MDA-MB-435) was 15.1 µM (inactive) and the GI50 (LXFL 529) was 21.9 µM (inactive). For the same compound, the GI50 (A549) was 31 µM (inactive), the GI50 (RXF 393) was 28.9 µM (inactive) and the GI50 (SNB-75) was 30.5 µM (inactive). For the same compound, the GI50 (CCRF-CEM) was 37.2 µM (inactive), the GI50 (TK-10) was 33 µM (inactive) and the GI50 (SF-295) was 14.1 µM (inactive). For the same compound, the GI50 (OVCAR-8) was 29.9 µM (inactive), the GI50 (EKVX) was 34.6 µM (inactive) and the GI50 (HOP-92) was 16.9 µM (inactive). For the same compound, the GI50 (786-0) was 31.5 µM (inactive), the GI50 (LOX IMVI) was 16.4 µM (inactive) and the GI50 (MCF7) was 22.3 µM (inactive). The GI50 (IGROV-1) was 24.3 µM (inactive), the GI50 (Malme-3M) was 25.2 µM (inactive) and the GI50 (SF-539) was 19.8 µM (inactive). For the same compound, the GI50 (A498) was 44.8 µM (inactive) and the GI50 (HT-29) was 14.7 µM (inactive).
